Experimental data: publication PMC11932207, “Regulating AMPA Receptors with Isoxazole-4-Carboxamide Derivatives: An Electrophysiological Study” (Journal of Xenobiotics, 2025)
Where two headings read alike, the source gives them in different places.

Columns and labels:
Format in all cases: cell-based
GluA2/3 = target: T1, GluA2/3 (UniProt P19491+P42263); test: Whole-cell patch clamp recordings of heteromeric GluA2/3 AMPA receptor currents and kinetics in transfected HEK293t cells; conditions: for Amplitude (peak whole-cell current in presence of compound): 16 µM compound co-applied with agonist, HEK293t, −60 mV, pH 7.4, 22 °C; for Amplitude (peak whole-cell current in presence of compound) / A/AI (amplitude ratio, glutamate alone / with compound) / t deact (weighted deactivation time constant) / t des (weighted desensitization time constant) / Amplitude, applying glutamate alone after compound: mean ± SD; for Amplitude (peak whole-cell current in presence of compound) / A/AI (amplitude ratio, glutamate alone / with compound) / Amplitude, applying glutamate alone after compound: n = 10; for A/AI (amplitude ratio, glutamate alone / with compound): 16 µM compound; for t deact (weighted deactivation time constant): 10 mM glutamate for 1 ms; for t deact (weighted deactivation time constant) / t des (weighted desensitization time constant): with compound; for t des (weighted desensitization time constant): 10 mM glutamate for 500 ms; for Amplitude, applying glutamate alone after compound: glutamate alone after the compound; for Effect on deactivation kinetics (τdeac), in words / Effect on desensitization kinetics (τdes), in words: versus glutamate alone, one-way ANOVA
T1 construct: expressed in transfected cells; host or cells: HEK293T (HEK293) cells, transient co-transfection
T1 sequence (P19491 22-883 isoform P19491-2 limits assumed): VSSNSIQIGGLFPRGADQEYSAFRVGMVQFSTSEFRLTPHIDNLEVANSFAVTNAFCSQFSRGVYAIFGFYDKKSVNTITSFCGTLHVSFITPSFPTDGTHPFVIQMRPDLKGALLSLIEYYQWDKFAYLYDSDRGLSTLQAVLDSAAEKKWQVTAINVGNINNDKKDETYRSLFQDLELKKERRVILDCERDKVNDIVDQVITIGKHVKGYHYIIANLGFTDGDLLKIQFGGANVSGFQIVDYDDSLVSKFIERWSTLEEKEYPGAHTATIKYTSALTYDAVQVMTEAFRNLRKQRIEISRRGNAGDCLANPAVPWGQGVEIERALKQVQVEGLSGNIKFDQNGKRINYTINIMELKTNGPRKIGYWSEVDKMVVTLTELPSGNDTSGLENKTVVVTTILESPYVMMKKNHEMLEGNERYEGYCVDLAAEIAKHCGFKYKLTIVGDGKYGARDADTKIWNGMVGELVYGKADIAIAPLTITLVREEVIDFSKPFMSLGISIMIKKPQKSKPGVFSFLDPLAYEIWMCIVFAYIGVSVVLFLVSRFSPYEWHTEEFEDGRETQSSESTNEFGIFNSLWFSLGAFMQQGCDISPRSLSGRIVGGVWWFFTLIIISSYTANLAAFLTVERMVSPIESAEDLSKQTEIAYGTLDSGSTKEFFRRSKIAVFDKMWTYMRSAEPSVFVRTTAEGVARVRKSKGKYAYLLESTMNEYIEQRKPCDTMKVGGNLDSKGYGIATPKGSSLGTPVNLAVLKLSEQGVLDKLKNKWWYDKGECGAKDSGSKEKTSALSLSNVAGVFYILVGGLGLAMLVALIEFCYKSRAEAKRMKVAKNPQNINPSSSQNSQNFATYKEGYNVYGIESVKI
T1 sequence (P42263 29-894 isoform P42263-2 limits assumed): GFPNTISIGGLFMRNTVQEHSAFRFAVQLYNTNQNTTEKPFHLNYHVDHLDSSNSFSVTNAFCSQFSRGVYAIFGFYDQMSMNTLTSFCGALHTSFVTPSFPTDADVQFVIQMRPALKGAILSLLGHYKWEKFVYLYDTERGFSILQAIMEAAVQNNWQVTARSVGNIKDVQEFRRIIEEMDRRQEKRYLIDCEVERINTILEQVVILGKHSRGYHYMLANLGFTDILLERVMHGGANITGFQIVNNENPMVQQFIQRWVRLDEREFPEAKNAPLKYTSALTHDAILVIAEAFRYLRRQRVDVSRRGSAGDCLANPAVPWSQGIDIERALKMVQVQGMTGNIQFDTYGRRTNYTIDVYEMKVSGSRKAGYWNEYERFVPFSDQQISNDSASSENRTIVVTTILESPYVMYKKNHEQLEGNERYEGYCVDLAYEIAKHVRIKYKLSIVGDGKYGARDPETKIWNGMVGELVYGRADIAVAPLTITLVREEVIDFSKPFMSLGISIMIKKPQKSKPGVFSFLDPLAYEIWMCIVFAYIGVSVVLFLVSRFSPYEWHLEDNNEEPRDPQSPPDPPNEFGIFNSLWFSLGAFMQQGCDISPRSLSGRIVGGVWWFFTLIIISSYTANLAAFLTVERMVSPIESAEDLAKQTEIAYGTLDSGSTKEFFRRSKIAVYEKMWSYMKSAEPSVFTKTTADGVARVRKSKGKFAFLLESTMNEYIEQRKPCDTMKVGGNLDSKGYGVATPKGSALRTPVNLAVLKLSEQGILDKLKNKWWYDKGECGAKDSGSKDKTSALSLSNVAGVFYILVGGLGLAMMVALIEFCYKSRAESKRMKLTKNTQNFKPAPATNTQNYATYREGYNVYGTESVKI
Description: (§1) The AMPA receptor subunits utilized in this study were of the flip isoform. The flip variant of the GluA2 subunit was originally provided by S. F. Heinemann (Salk Institute, La Jolla, CA, USA) in a pBlueScript plasmid. This plasmid was subsequently sub-cloned into a pRK vector to enable expression in HEK293 cells, which were sourced from Sigma, Germany. Additionally, the unedited version of GluA2 (R607Qjj, flip isoform) and enhanced green fluorescent protein (EGFP), both contained in pRK5 vectors, were generously supplied by P. H. Seeburg (Max Planck Institute for Medical Research, Heidelberg, Germany). Chemical-mediated ways induced transfection. GluA2 homomers were expressed into HEK293 cells by the co-transfection of 1 μg GluA2 plasmid with an equal amount of GFP expression vectors (1:1 ratio) into the cells. In addition, co-transfection was conducted for heteromeric GluA2/3 subunits at a ratio of 1:1.2 for optimum expression. For post-transfection experiments, cells were plated in 10% fetal calf serum and antibiotics in DMEM in Petri plates. These cultures were maintained under carefully controlled conditions—37 °C and 5% CO2 within a humidified incubator. The selection of cells for recordings was based on fluorescence intensity. Highly GFP-positive cells were identified and isolated for further analysis, ensuring precise targeting of transfected populations.
(§2) Whole-cell patch clamp recordings were performed on HEK293t cells 36–48 h after transfection. Experiments were conducted at 22 °C, maintaining a holding potential of −60 mV, using an Integrated Patch Amplifier (IPA) from Sutter Instruments (Novato, CA, USA). Data acquisition was managed with SutterPatch Software v. 1.1.1 (Sutter Instruments), employing a sampling rate of 10 kHz and setting the low-pass filter at 2 kHz. […] The external solution contained 150 mM NaCl, 2.8 mM KCl, 0.5 mM MgCl2, 2 mM CaCl2, and 10 mM HEPES, adjusted to a pH of 7.4 using NaOH. The internal pipette solution was composed of 110 mM CsF, 30 mM CsCl, 4 mM NaCl, 0.5 mM CaCl2, 10 mM trypsin-EDTA solution B (0.25%), 0.05% EDTA, and 10 mM HEPES, with the pH adjusted to 7.2 using CsOH.
(§3) A dual-barrel glass pipette (theta tube) was employed for the rapid delivery of glutamate and other solutions. The theta tube was attached to a high-speed piezoelectric solution exchange system (Automate Scientific, Berkeley, CA, USA). To assess the efficiency of solution exchange, open-tip potentials were measured by applying solutions with different ionic compositions after the patch was expelled from the pipette. The time required for a 10–90% change in the solution was generally less than […].
(§4) Data analysis was performed with Igor Pro8.04 software (Wave Metrics, Inc., Portland, OR, USA). AMPA receptor deactivation and desensitization kinetics were measured by applying 10 mM glutamate for 1 ms and 500 ms, respectively. The currents from the AMPA receptor were fitted to a double-exponential model to quantify deactivation and desensitization time constants measured from the double-exponential fits. The weighted tau (τw) is calculated as: τw = (τf × af) + (τs × as), where τf and τs are the time constants of fast and slow exponential components and af and as represent their relative amplitudes.
(§5) Data are presented as the mean ± standard deviation (SD). The total number of HEK293 cells engaged was n = 10. The experimental groups were compared to the wild type using a one-way analysis of variance (ANOVA). Statistical significance was assessed using p values: p < 0.05 (*) indicated significance, p < 0.01 (**) indicated high significance, and p < 0.001 (***) indicated very high significance. The value “ns” indicates non-significance. Concentration–response relationships were modeled using the Hill equation with the resulting combined plots via GraphPad Prism software (version 6.01, GraphPad Software). The data presented are the means from 3–4 experimental replicates. […]

GluA2 = target: T2, GluA2 (Rattus norvegicus, UniProt P19491); test: Whole-cell patch clamp recordings of homomeric GluA2 AMPA receptor currents and kinetics in transfected HEK293t cells; conditions: for Amplitude (peak whole-cell current in presence of compound): 16 µM compound co-applied with agonist, HEK293t, −60 mV, pH 7.4, 22 °C; for Amplitude (peak whole-cell current in presence of compound) / A/AI (amplitude ratio, glutamate alone / with compound) / t deact (weighted deactivation time constant) / t des (weighted desensitization time constant) / Amplitude, applying glutamate alone after compound: mean ± SD; for Amplitude (peak whole-cell current in presence of compound) / A/AI (amplitude ratio, glutamate alone / with compound) / Amplitude, applying glutamate alone after compound: n = 10; for A/AI (amplitude ratio, glutamate alone / with compound): 16 µM compound; for t deact (weighted deactivation time constant): 10 mM glutamate for 1 ms; for t deact (weighted deactivation time constant) / t des (weighted desensitization time constant): with compound; for t des (weighted desensitization time constant): 10 mM glutamate for 500 ms; for Amplitude, applying glutamate alone after compound: glutamate alone after the compound; for Effect on deactivation kinetics (τdeac), in words / Effect on desensitization kinetics (τdes), in words: versus glutamate alone, one-way ANOVA
T2 construct: expressed in transfected cells; host or cells: HEK293T (HEK293) cells, transient co-transfection with a separate EGFP vector
T2 sequence (P19491 22-883 isoform P19491-2 limits assumed): as the sequence (P19491 22-883 isoform P19491-2 limits assumed) above
Description: as §1, §2, §3, §4, §5

GluN1a/2A = target: T3, GluN1a/2A (Homo sapiens, UniProt Q05586+Q12879); test: Selectivity: whole-cell normalized peak current of NMDA receptor GluN1a/2A; conditions: 16 µM compound, HEK293t, −60 mV
T3 construct: expressed in transfected cells; host or cells: HEK293t cells
T3 sequence (Q12879 23-1464, other chains not shown): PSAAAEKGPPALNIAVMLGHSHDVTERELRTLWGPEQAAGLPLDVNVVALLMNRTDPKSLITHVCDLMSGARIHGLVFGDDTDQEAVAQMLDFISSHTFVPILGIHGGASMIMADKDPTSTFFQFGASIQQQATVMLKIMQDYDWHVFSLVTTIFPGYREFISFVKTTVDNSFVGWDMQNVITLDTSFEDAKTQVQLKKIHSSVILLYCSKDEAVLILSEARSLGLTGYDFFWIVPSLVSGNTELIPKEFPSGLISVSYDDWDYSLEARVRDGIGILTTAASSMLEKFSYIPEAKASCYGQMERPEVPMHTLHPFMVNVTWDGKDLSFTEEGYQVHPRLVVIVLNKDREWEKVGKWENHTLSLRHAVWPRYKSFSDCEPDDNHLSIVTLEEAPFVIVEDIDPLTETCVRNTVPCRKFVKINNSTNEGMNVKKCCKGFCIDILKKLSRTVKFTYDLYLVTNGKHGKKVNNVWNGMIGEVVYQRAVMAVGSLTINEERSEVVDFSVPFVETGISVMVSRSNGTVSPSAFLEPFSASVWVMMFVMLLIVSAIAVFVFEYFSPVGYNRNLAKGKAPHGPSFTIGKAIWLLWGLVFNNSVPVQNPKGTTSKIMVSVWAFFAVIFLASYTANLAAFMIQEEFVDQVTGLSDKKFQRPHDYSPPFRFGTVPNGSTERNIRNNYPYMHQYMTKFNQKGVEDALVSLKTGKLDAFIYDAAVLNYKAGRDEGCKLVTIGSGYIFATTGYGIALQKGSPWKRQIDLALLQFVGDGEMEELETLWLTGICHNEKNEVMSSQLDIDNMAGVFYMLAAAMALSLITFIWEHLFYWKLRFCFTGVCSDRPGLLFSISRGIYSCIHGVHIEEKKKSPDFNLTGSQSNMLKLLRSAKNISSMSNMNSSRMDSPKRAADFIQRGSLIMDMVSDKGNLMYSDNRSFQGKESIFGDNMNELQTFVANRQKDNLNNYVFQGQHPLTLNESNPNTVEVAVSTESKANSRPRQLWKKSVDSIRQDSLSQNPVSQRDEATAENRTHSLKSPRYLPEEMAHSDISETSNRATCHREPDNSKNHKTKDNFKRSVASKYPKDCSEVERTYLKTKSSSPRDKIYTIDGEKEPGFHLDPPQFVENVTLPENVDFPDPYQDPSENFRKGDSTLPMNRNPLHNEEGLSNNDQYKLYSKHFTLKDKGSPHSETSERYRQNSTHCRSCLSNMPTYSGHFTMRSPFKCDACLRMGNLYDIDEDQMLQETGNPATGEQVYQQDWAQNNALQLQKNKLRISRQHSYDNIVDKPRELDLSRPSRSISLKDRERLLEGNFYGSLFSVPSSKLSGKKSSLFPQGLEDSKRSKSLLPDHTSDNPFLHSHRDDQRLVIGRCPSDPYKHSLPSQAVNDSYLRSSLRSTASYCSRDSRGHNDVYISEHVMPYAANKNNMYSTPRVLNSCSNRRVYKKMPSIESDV
Procedure: (§6) To evaluate the selectivity of CIC-1 and CIC-2 derivatives, their effects on GluN1a/2A and GluN1a/2B of the NMDA receptors were tested. The normalized peak current responses of the subunits alone and with CIC-1 and CIC-2 were determined (Figure 4).
(§7) Figure 4 The inhibitory actions of Isoxazole-4-carboxamide derivatives on the whole-cell currents mediated by GluA2, GluA2/3 AMPA receptor subtypes and GluN1a/2A, […] receptor subtypes. (a) represents data for CIC-1 and CIC-2 compounds. AMPA- and NMDA-induced currents (black bars) are then compared to currents recorded in the presence of 16 µM CIC compounds (white bars). Panels (b–e) show representative traces of whole-cell current responses to a 1 ms administration of 10 mM glutamate for the subunits. The traces show normalized responses for glutamate alone (black) and glutamate in combination with CIC compounds (color-coded). The recording was performed in HEK293t cells at −60 mV, pH 7.4, and 22 °C. Data present mean ± SD from 3–4 different experiments. *** p < 0.001; and “ns” indicates not significant.

GluN1a/2B = target: T4, GluN1a/2B (Homo sapiens, UniProt Q05586+Q13224); test: Selectivity: whole-cell normalized peak current of NMDA receptor GluN1a/2B; conditions: 16 µM compound, HEK293t, −60 mV
T4 construct: expressed in transfected cells; host or cells: HEK293t cells
T4 sequence (Q13224 27-1484, other chains not shown): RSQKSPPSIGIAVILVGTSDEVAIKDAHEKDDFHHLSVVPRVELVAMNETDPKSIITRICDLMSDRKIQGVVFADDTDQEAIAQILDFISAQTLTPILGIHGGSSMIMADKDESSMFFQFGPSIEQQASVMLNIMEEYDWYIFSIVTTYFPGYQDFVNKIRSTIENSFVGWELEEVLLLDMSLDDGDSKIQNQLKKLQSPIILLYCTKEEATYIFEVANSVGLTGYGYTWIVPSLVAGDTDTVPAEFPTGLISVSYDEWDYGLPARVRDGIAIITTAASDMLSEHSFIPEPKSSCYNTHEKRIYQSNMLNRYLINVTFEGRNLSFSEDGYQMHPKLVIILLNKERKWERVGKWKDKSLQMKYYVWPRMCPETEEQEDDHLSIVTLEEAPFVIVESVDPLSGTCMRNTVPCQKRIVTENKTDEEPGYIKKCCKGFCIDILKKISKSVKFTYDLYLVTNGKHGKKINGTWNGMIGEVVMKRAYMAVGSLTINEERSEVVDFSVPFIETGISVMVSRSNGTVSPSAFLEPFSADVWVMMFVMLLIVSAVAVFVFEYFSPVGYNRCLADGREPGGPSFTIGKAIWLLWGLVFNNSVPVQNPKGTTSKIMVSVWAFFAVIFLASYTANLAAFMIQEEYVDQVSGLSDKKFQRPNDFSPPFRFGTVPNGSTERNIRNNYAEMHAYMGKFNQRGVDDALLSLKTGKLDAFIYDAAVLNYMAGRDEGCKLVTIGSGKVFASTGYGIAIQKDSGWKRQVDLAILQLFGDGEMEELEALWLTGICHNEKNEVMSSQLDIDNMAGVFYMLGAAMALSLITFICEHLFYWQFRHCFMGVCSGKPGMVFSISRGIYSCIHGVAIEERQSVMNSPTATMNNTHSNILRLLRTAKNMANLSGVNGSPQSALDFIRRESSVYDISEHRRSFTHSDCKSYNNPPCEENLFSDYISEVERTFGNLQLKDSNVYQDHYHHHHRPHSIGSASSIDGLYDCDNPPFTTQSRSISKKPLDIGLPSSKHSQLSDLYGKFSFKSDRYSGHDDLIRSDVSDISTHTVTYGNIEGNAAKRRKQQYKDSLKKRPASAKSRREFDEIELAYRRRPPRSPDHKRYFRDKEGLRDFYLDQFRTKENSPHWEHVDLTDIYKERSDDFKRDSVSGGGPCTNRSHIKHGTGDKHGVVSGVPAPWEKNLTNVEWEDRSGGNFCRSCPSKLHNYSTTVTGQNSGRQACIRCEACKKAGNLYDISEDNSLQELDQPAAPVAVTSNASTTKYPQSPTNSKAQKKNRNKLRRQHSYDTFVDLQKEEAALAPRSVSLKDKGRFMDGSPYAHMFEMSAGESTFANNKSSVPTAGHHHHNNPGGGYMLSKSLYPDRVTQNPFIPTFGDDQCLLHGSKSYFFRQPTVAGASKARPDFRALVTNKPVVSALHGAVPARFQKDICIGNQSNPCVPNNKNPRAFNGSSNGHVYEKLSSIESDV
Procedure: as §6, §7

[1] = concentration–response fit, read-out: Log IC50 (converted)
[2] = inhibition of whole-cell peak current, concentration–response, Hill fit, read-out: IC50

| Structure (SMILES) | Amplitude (peak whole-cell current in presence of compound) (GluA2/3) [pA] | A/AI (amplitude ratio, glutamate alone / with compound) (GluA2/3) | t deact (weighted deactivation time constant) (GluA2/3) [ms] | t des (weighted desensitization time constant) (GluA2/3) [ms] | IC50 (GluA2/3; [1]) [µM] | Amplitude, applying glutamate alone after compound (GluA2/3) [pA] | Amplitude (peak whole-cell current in presence of compound) (GluA2) [pA] | A/AI (amplitude ratio, glutamate alone / with compound) (GluA2) | t deact (weighted deactivation time constant) (GluA2) [ms] | t des (weighted desensitization time constant) (GluA2) [ms] | IC50 (GluA2; [1]) [µM] | Amplitude, applying glutamate alone after compound (GluA2) [pA] | IC50 (GluA2; [2]) [µM] | IC50 (GluA2/3; [2]) [µM] | Effect on deactivation kinetics (τdeac), in words (GluA2/3) | Effect on desensitization kinetics (τdes), in words (GluA2/3) | Effect on deactivation kinetics (τdeac), in words (GluA2) | Effect on desensitization kinetics (τdes), in words (GluA2) | further results |
| --- | --- | --- | --- | --- | --- | --- | --- | --- | --- | --- | --- | --- | --- | --- | --- | --- | --- | --- | --- |
| CSc1ccc(NC(=O)c2c(-c3c(Cl)cccc3Cl)noc2C)cc1 [CIC-1, 3-(2,6-dichlorophenyl)-5-methyl-N-(4-(methylthio)phenyl)isoxazole-4-carboxamide] | 73 ± 5 | 8.02±0.49 | 8.1 ± 0.4 | 0.7 ± 0.2 | 3.09 | 562±28 | 156 ± 7 | 8.11±0.41 | 8.3 ± 0.3 | 0.6 ± 0.1 | 3.02 | 1231±85 | 3.03 | – | – | – | – | – | Increase of deactivation time constant (τdeac) (GluA2/3; versus control): approximately 4 fold; Increase of deactivation time constant (τdeac) (GluA2; versus control): approximately 4 fold; Effect on normalized peak current (GluN1a/2A): statistically not significant; Effect on normalized peak current (GluN1a/2B): statistically not significant |
| Cc1onc(-c2c(Cl)cccc2Cl)c1C(=O)Nc1ccc(-c2ccccc2)cc1 [CIC-9, N-([1,1′-biphenyl]-4-yl)-3-(2,6-dichlorophenyl)-5-methylisoxazole-4-carboxamide] | 124±19 | 4.01±0.19 | 4.5 ± 0.3 | 2.0 ± 0.1 | 6.46 | 484±89 | – | 4.10±0.18 | 4.6 ± 0.2 | 2.0 ± 0.1 | 6.31 | 1226±158 | 6.3 | 6.42 | statistically significant prolongation of τdeac | accelerated desensitization, although to a lesser degree | statistically significant prolongation of τdeac | accelerated desensitization, although to a lesser degree | – |
| Cc1onc(-c2c(Cl)cccc2Cl)c1C(=O)Nc1ccc(OC(F)(F)F)cc1 [CIC-10, 3-(2,6-dichlorophenyl)-5-methyl-N-(4-(trifluoromethoxy)phenyl)isoxazole-4-carboxamide] | 128±29 | 3.86±0.18 | 4.3 ± 0.2 | 2.5 ± 0.1 | 6.61 | 482±128 | 328±35 | 3.90±0.16 | 4.4 ± 0.2 | 2.3 ± 0.1 | 6.46 | 1249±188 | 6.51 | 6.62 | statistically significant prolongation of τdeac | did not significantly alter desensitization kinetics | statistically significant prolongation of τdeac | did not significantly alter desensitization kinetics | – |
| Cc1onc(-c2c(F)cccc2Cl)c1C(=O)Nc1ccc(OC(F)(F)F)cc1 [CIC-11, 3-(2-chloro-6-fluorophenyl)-5-methyl-N-(4-(trifluoromethoxy)phenyl)isoxazole-4-carboxamide] | 141±29 | 3.46±0.16 | 2.9 ± 0.2 | 2.3 ± 0.1 | 7.08 | 476±112 | 359±28 | 3.53±0.15 | 3.0 ± 0.2 | – | 7.08 | 1233±147 | 7.02 | 7.13 | did not elicit statistically significant changes | did not significantly alter desensitization kinetics | did not elicit statistically significant changes | did not significantly alter desensitization kinetics | – |
| Cc1onc(-c2c(Cl)cccc2Cl)c1C(=O)Nc1ccc(C(C)(C)C)cc1 [CIC-12, N-(4-(tert-butyl)phenyl)-3-(2,6-dichlorophenyl)-5-methylisoxazole-4-carboxamide] | 162±36 | 3.01±0.14 | 2.8 ± 0.2 | 2.3 ± 0.1 | 7.59 | 478±127 | 417±47 | 3.04±0.13 | 2.7 ± 0.2 | 2.4 ± 0.1 | 7.59 | 1237±195 | 7.54 | 7.5 | did not elicit statistically significant changes | did not significantly alter desensitization kinetics | did not elicit statistically significant changes | did not significantly alter desensitization kinetics | – |
